Test results as given in patent publication US9714232B2, “Substituted piperazine compounds and methods of use thereof” (Sunshine Lake Pharma Co., Ltd., priority 2013, dated 2017).

Assays:
[1] = target: serotonin transporter in rat synaptosome (Rattus norvegicus (Rat), UniProt P31652); assay: Inhibitory effect on [3H]5-HT uptake in rat synaptosome; assay type: biochemical; settings: rat brain synaptosomes, 0.1 μCi [3H]5-HT, 37° C., 15 minutes
Description: The synaptosomes (150 μg) prepared from a rat brain were incubated at 37° C. for 15 minutes with 0.1 μCi [^3H]5-HT in the absence or presence of the test compound or the reference compound in a buffer solution containing 106.2 mM NaCl, 4.5 mM KCl, 2.25 mM MgSO4, 1.08 mM NaH2PO4, 22.5 mM NaHCO3, 9.9 mM glucose, 9 μM EGTA and 45 μM ascorbic acid (pH 7.4).
The basal control activity was determined by incubating the same mixture at 4° C. for 15 minutes in the presence of 10 μM imipramine to block the uptake of 5-HT, which was taken as the standard reference compound and tested in each experiment at several concentrations to obtain an inhibition curve.
Following the incubation, the samples were filtered rapidly under vacuum through glass fiber filters (GF/B, Packard) and rinsed twice with an ice-cold incubation buffer using a 96-sample cell harvester (Unifilter, Packard) to eliminate free [^3H]5-HT. The filters were dried and the retained radioactivity was measured in a scintillation counter (Topcount, Packard) using a scintillation cocktail (Microscint 0, Packard). The experimental results were expressed as a percent inhibition of the control uptake of [^3H]5-HT.
Inhibition of serotonin transporter in rat synaptosome was measured by the concentrations of [^3H]5-HT.

human 5-HT1A receptor = human 5-HT1A receptor (Homo sapiens (Human), UniProt P08908); assay: Affinity for human 5-HT1A receptor ([3H]8-OH-DPAT binding, HEK-293 cell homogenates); settings: 0.3 nM [3H]8-OH-DPAT, human HEK-293 cell homogenates, 22° C., 60 minutes; Ki from IC50 by ChengPrusoff equation
Chain of human 5-HT1A receptor (P08908 whole entry): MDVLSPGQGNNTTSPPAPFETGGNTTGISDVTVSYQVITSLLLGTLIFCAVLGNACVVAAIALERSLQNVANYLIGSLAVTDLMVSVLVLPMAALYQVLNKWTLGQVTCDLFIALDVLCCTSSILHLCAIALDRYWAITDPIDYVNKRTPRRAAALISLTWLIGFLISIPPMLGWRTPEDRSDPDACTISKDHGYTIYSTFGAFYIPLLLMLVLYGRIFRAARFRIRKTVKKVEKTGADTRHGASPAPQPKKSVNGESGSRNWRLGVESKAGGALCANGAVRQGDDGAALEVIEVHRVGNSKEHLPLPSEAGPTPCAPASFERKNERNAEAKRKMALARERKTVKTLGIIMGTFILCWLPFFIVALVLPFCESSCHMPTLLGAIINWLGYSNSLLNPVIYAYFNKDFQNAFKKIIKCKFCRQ
Description: Human HEK-293 cell homogenates (36 μg protein) were incubated at 22° C. for 60 minutes with 0.3 nM [^3H]8-0H-DPAT (Perkin-Elmer) in the absence or presence of the test compound in a buffer solution containing 50 mM Tris-HCl (pH 7.4), 10 mM MgSO4, 0.5 mM EDTA and 2 μg/ml aprotinine.
The non-specific binding value was determined by incubating the same mixture in the presence of 10 μM 8-OH-DPAT, which was used as the standard reference compound and tested in each experiment at several concentrations to obtain a competition curve.
Following the incubation, the samples were filtered rapidly under vacuum through glass fiber filter (GF/B, Packard) presoaked with 0.3% PEI and rinsed several times with ice-cold 50 mM Tris-HCl using a 96-sample cell harvester (Unifilter, Packard). The filters were dried and the retained radioactivity was measured in a scintillation counter (Topcount, Packard) using a scintillation cocktail (Microscint 0, Packard). The experimental results were expressed as a percent inhibition of the control radioligand specific binding.
Binding assay of [^3H] 8-OH-DPAT (0.3 nM) with 5-HT1A receptor in human HEK-293 cell was tested by scintillation proximity assay of membrane.

Chain of serotonin transporter in rat synaptosome (P31652 whole entry): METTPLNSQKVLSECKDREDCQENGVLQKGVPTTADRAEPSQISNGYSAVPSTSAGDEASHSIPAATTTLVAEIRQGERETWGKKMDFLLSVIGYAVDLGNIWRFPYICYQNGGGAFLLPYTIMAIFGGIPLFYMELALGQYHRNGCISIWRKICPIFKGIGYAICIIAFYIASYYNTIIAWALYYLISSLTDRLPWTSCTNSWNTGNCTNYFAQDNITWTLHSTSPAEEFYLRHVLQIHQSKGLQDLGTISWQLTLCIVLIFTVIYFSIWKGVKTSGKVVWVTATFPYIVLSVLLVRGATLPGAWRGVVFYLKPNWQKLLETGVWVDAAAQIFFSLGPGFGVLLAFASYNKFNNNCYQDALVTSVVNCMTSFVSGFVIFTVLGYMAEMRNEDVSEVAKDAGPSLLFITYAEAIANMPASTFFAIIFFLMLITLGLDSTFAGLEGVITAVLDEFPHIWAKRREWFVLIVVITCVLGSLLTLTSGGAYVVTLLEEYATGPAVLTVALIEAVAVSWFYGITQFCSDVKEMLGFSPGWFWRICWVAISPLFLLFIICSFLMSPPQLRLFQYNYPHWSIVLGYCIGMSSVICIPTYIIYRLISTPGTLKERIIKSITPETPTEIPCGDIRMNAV

Row | Structure (SMILES) | IC50 [1] [nM] | Ki (human 5-HT1A receptor) [nM]
1 | N#Cc1ccc2[nH]cc(CCCN3CCN(c4ccc(-n5ccc6ccccc6c5=O)cc4)CC3)c2c1 [Example 30, 3-(3-(4-(4-(1-oxoisoquinolin-2(1H)-yl)phenyl)piperazin-1-yl)propyl)-1H-indole-5-carbonitrile] | 4.3 | 3.6
2 | N#Cc1ccc2[nH]cc(CCCCN3CCN(c4ccc(-n5ccc6ncccc6c5=O)cc4)CC3)c2c1 [Example 31, 3-(4-(4-(4-(5-oxo-1,6-naphthyridin-6(5H)-yl)phenyl)piperazin-1-yl)butyl)-1H-indole-5-carbonitrile] | 0.23 | 0.5
3 | N#Cc1ccc2[nH]cc(CCCN3CCN(c4ccc(-n5ccc6ncccc6c5=O)cc4)CC3)c2c1 [Example 32, 3-(3-(4-(4-(5-oxo-1,6-naphthyridin-6(5H)-yl)phenyl)piperazin-1-yl)propyl)-1H-indole-5-carbonitrile] | 0.93 | 1.7
4 | N#Cc1ccc2[nH]cc(CCCCN3CCN(c4ccc(-n5ccc6occc6c5=O)cc4)CC3)c2c1 [Example 33, 3-(4-(4-(4-(4-oxofuro[3,2-c]pyridin-5 (4H)-yl)phenyl)piperazin-1-yl)butyl)-1H-indole-5-carbonitrile] | 0.53 | 0.14

The remaining compounds from weak to strong by IC50 [1], led by results:

Row | IC50 [1] [nM] | Ki (human 5-HT1A receptor) [nM] | Structure (SMILES)
5 | 4.2 | 0.1 | N#Cc1ccc2[nH]cc(CCCN3CCN(c4ccc(-n5ccc6occc6c5=O)cc4)CC3)c2c1 [Example 34, 3-(3-(4-(4-(4-oxofuro[3,2-c]pyridin-5 (4H)-yl)phenyl)piperazin-1-yl)propyl)-1H-indole-5-carbonitrile]
6 | 2.2 | 1.5 | N#Cc1ccc2[nH]cc(CCCCCN3CCN(c4ccc(-n5cc(F)cc(F)c5=O)cc4)CC3)c2c1 [Example 28, 3-(5-(4-(4-(3,5-difluoro-2-oxopyridin-1(2H)-yl)phenyl)piperazin-1-yl)pentyl)-1H-indole-5-carbonitrile]
7 | 1.8 | 3 | N#Cc1ccc2[nH]cc(CCCN3CCN(c4ccc(-n5ccncc5=O)cc4)CC3)c2c1 [Example 36, 3-(3-(4-(4-(2-oxopyrazin-1(2H)-yl)phenyl)piperazin-1-yl)propyl)-1H-indole-5-carbonitrile]
8 | 1.4 | 1.9 | N#Cc1ccc2[nH]cc(CCCN3CCN(c4ccc(N5CCCNC5=O)cc4)CC3)c2c1 [Example 38, 3-(3-(4-(4-(2-oxotetrahydropyrimidin-1(2H)-yl)phenyl)piperazin-1-yl)propyl)-1H-indole-5-carbonitrile]
9 | 1.3 | 1.3 | N#Cc1ccc2[nH]cc(CCCCN3CCN(c4ccc(N5CCCNC5=O)cc4)CC3)c2c1 [Example 37, 3-(4-(4-(4-(2-oxotetrahydropyrimidin-1(2H)-yl)phenyl)piperazin-1-yl)butyl)-1H-indole-5-carbonitrile]
10 | 0.8 | 0.8 | N#Cc1ccc2[nH]cc(CCCCN3CCN(c4ccc(-n5ccncc5=O)cc4)CC3)c2c1 [Example 35, 3-(4-(4-(4-(2-oxopyrazin-1(2H)-yl)phenyl)piperazin-1-yl)butyl)-1H-indole-5-carbonitrile]
